Laboratory results reported in ChEMBL document CHEMBL6182861, “Structural modification of heptamethine indocyanine dyes with improved aqueous solubility and stability for photothermal therapy” (Eur J Med Chem, 2025).
The source made the active and inactive calls. The calls are words filed in the database; no cut-off is given here.

Columns and labels:
Mitochondrial membrane [1] = experiment: Inhibition of mitochondrial membrane potential in mouse 4T1 cells at 3.12 uM preincubated for 4 hrs followed by exposure to laser irradiation of 808 nm for 2 mins and subsequent incubation for 20 hrs by flow cytometry; type: cell membranes; details: time 1442.0 min
Mitochondrial membrane [2] = experiment: Inhibition of mitochondrial membrane potential in mouse 4T1 cells at 3.12 uM incubated for 24 hrs by flow cytometry; type: cell membranes
HepG2 [3] = experiment: Induction of ROS generation in human HepG2 cells at 3.12 uM incubated for 4 hrs followed by exposure to laser irradiation of 808 nm for 2 mins by flow cytometry; type: functional, cell-based; details: time 242.0 min
[4] = Photosensitizing property of compound assessed as generation of singlet-state oxygen by ESR spectrometry; type: functional
Mus musculus [5] = experiment: Photothermal effect in female BALB/c mouse bearing mouse 4T1 cells at 42 degreeC at 1.8 mg/kg, iv pretreated for 4 hrs followed by exposure to laser irradiation of 808 nm for 5 mins; type: functional, organism-based; details: time 245.0 min
4T1 [6] = experiment: Induction of ROS generation in mouse 4T1 cells at 3.12 uM incubated for 4 hrs followed by exposure to laser irradiation of 808 nm for 2 mins by flow cytometry; type: functional, cell-based; details: time 242.0 min
Mitochondrial membrane [7] = experiment: Inhibition of mitochondrial membrane potential in human HepG2 cells at 3.12 uM incubated for 24 hrs by flow cytometry; type: cell membranes
HepG2 [8] = experiment: Induction of apoptosis in human HepG2 cells at 3.12 uM incubated for 4 hrs followed by exposure to laser irradiation of 808 nm for 2 mins by Annexin V-FITC/PI staining based flow cytometry; type: functional, cell-based; details: time 242.0 min
Mitochondrial membrane [9] = experiment: Inhibition of mitochondrial membrane potential in human HepG2 cells at 3.12 uM incubated for 24 hrs by Rh123 probe based CLSM; type: cell membranes
[10] = Photothermal stability of compound at 60 degreeC at 20 uM exposed to laser irradiation of 808 nm for 2.5 mins; type: physicochemical
[11] = Drug uptake in mouse 4T1 cells assessed as increase in fluorescence intensity at 3.12 uM incubated for 4 hrs by CLSM; type: ADME, cell-based; details: 4t1, 4 h
[12] = Photosensitizing property of compound assessed as generation of singlet-state oxygen at 10 uM exposed to laser irradiation of 808 nm for 2 mins by SOSG probe based analysis; type: functional
HepG2 [13] = experiment: Induction of ROS generation in human HepG2 cells at 3.12 uM incubated for 4 hrs followed by exposure to laser irradiation of 808 nm for 2 mins by DCFH-DA probe based CLSM; type: functional, cell-based; details: time 242.0 min
[14] = Toxicity in ICR mouse bearing mouse H22 cells assessed as damage in heart at 1.8 mg/kg, iv pretreated for 4 hrs followed by exposure to laser irradiation of 808 nm for 5 mins on every 2 days treated for 15 days by H and E staining based analysis; type: organism-based; details: in vivo, 360 h, time 15 day
4T1 [15] = experiment: Induction of apoptosis in mouse 4T1 cells at 3.12 uM incubated for 4 hrs followed by exposure to laser irradiation of 808 nm for 2 mins by Annexin V-FITC/PI staining based flow cytometry; type: functional, cell-based; details: time 242.0 min
Mitochondrial membrane [16] = experiment: Inhibition of mitochondrial membrane potential in mouse 4T1 cells at 3.12 uM preincubated for 4 hrs followed by exposure to laser irradiation of 808 nm for 2 mins and subsequent incubation for 20 hrs by Rh123 probe based CLSM; type: cell membranes; details: time 1442.0 min
Mitochondrial membrane [17] = experiment: Inhibition of mitochondrial membrane potential in human HepG2 cells at 3.12 uM preincubated for 4 hrs followed by exposure to laser irradiation of 808 nm for 2 mins and subsequent incubation for 20 hrs by flow cytometry; type: cell membranes; details: time 1442.0 min
[18] = Drug uptake in human HepG2 cells assessed as increase in fluorescence intensity at 3.12 uM incubated for 4 hrs by flow cytometry; type: ADME, cell-based; details: hepg2, 4 h
Mitochondrial membrane [19] = experiment: Inhibition of mitochondrial membrane potential in mouse 4T1 cells at 3.12 uM incubated for 24 hrs by Rh123 probe based CLSM; type: cell membranes
[20] = Cytotoxicity against mouse NIH3T3 cells assessed as survival rate at 25 uM relative to control; type: toxicity, cell-based; details: read-out: Survival
4T1 [21] = experiment: Induction of ROS generation in mouse 4T1 cells at 3.12 uM incubated for 4 hrs followed by exposure to laser irradiation of 808 nm for 2 mins by DCFH-DA probe based CLSM; type: functional, cell-based; details: time 242.0 min
Mitochondrial membrane [22] = experiment: Inhibition of mitochondrial membrane potential in human HepG2 cells at 3.12 uM preincubated for 4 hrs followed by exposure to laser irradiation of 808 nm for 2 mins and subsequent incubation for 20 hrs by Rh123 probe based CLSM; type: cell membranes; details: time 1442.0 min
[23] = Drug uptake in mouse 4T1 cells assessed as increase in fluorescence intensity at 3.12 uM incubated for 4 hrs by flow cytometry; type: ADME, cell-based; details: 4t1, 4 h
[24] = Drug uptake in human HepG2 cells assessed as increase in fluorescence intensity at 3.12 uM incubated for 4 hrs by CLSM; type: ADME, cell-based; details: hepg2, 4 h
[25] = Photothermal property of compound assessed as increase in photothermal conversion efficiency at 20 uM exposed to laser irradiation of 808 nm for 2 mins; type: functional
Mitochondrial membrane [26] = experiment: Inhibition of mitochondrial membrane potential in mouse 4T1 cells assessed as green fluorescence at 3.12 uM preincubated for 4 hrs followed by exposure to laser irradiation of 808 nm for 2 mins and subsequent incubation for 20 hrs by JC-1 dye based analysis; type: cell membranes; details: time 1442.0 min
4T1 [27] = experiment: Photothermal cytotoxicity against mouse 4T1 cells assessed as survival rate at 3.12 uM preincubated for 4 hrs followed by exposure to laser irradiation of 808 nm for 2 mins and subsequent incubation for 20 hrs by MTT assay relative to control; type: functional; details: 4T1, light or radiation study, 24.03 h, time 1442 min, read-out: Survival
[28] = Toxicity in female BALB/c mouse bearing mouse 4T1 cells assessed as body weight at 2.5 mg/kg, iv pretreated for 4 hrs followed by exposure to laser irradiation of 808 nm for 5 mins on every 2 days treated for 15 days; type: organism-based; details: in vivo, 360 h, time 15 day
4T1 [29] = experiment: Antitumor activity against mouse 4T1 cells implanted in female BALB/c mouse assessed as necrotic tissue at 2.5 mg/kg, iv pretreated for 4 hrs followed by exposure to laser irradiation of 808 nm for 5 mins on every 2 days treated for 15 days by H and E staining based analysis; type: functional, organism-based; details: time 15.0 day
[30] = Drug excretion in female BALB/c mouse bearing mouse 4T1 cells at 2.5 mg/kg, iv measured up to 12 hrs by fluorescence imaging analysis; type: ADME, organism-based; details: in vivo
[31] = Biodistribution in liver of female BALB/c mouse bearing mouse 4T1 cells at 2.5 mg/kg, iv measured up to 12 hrs by fluorescence imaging analysis; type: ADME, organism-based; details: in vivo
4T1 [32] = experiment: Antitumor activity against mouse 4T1 cells implanted in female BALB/c mouse assessed as cellular damage at 2.5 mg/kg, iv pretreated for 4 hrs followed by exposure to laser irradiation of 808 nm for 5 mins on every 2 days treated for 15 days by H and E staining based analysis; type: functional, organism-based; details: time 15.0 day
[33] = Drug accumulation in tumor of female BALB/c mouse bearing mouse 4T1 cells at 2.5 mg/kg, iv measured up to 12 hrs by fluorescence imaging analysis; type: ADME, organism-based, Neoplasm; details: in vivo
Mus musculus [34] = experiment: Photothermal effect in female BALB/c mouse bearing mouse 4T1 cells at approximately 50 degreeC at 2.5 mg/kg, iv pretreated for 4 hrs followed by exposure to laser irradiation of 808 nm for 5 mins; type: functional, organism-based; details: time 245.0 min

Row | SMILES | inhibition (Mitochondrial membrane [1]) | inhibition (Mitochondrial membrane [2]) | Activity (HepG2 [3]) | Activity [4] | Activity (4T1 [6]) | inhibition (Mitochondrial membrane [7]) | Activity (HepG2 [8]) | inhibition (Mitochondrial membrane [9]) | Stability [10] | Drug uptake [11] | Activity [12] | Activity (HepG2 [13]) | Activity (4T1 [15]) | inhibition (Mitochondrial membrane [16]) | inhibition (Mitochondrial membrane [17]) | Drug uptake [18] | inhibition (Mitochondrial membrane [19]) | viability at 25 µM [20] | Activity (4T1 [21]) | inhibition (Mitochondrial membrane [22]) | also measured
1 | COC(=O)C(=C\C=C\C1=[N+](C)c2ccccc2C1(C)C)/C=C/C=C1/N(C)c2ccccc2C1(C)C.[I-] | Active; Significant Inhibition Was Observed | Active; Certain Degree Of Inhibition Was Observed | Active | Active | Active | Active; Certain Degree Of Inhibition Was Observed | Active | Active; Certain Degree Of Inhibition Was Observed | Unstable | Active | inactive | Active | Active | Active; Significant Inhibition Was Observed | Active; Significant Inhibition Was Observed | Active | Active; Certain Degree Of Inhibition Was Observed | > 60% | Active | Active; Significant Inhibition Was Observed | Activity (Mus musculus [5]): Active; Activity [14]: Non-toxic; Drug uptake [23]: Active; Drug uptake [24]: Active; Activity [25]: Not active; Lowest Efficiency Observed Among Tested Compounds
2 | COCCOCCOCCN1/C(=C/C=C/C(=C/C=C/C2=[N+](CCOCCOCCOC)c3ccccc3C2(C)C)C(=O)OC)C(C)(C)c2ccccc21.[I-] | Active; Significant Inhibition Was Observed | Active; Certain Degree Of Inhibition Was Observed | Active; Exhibited Only A Smaller Increase In Activity | Active | Active; Exhibited Only A Smaller Increase In Activity | Active; Certain Degree Of Inhibition Was Observed | Active | Active; Certain Degree Of Inhibition Was Observed | Stable | Active | Active | Active; Exhibited Only A Smaller Increase In Activity | Active | Active; Significant Inhibition Was Observed | Active; Significant Inhibition Was Observed | Active | Active; Certain Degree Of Inhibition Was Observed | > 60% | Active; Exhibited Only A Smaller Increase In Activity | Active; Significant Inhibition Was Observed | inhibition (Mitochondrial membrane [26]): Active; viability at 3.12 µM (4T1 [27]): 36%; Activity [28]: 18 g; Activity (4T1 [29]): Active; Drug excretion [30]: Active; Drug uptake [31]: Active; Activity (4T1 [32]): Active; Drug uptake [33]: Active; Drug uptake [23]: Active; Activity (Mus musculus [34]): Active; Compound Exhibited Superior Effect Among Tested Compounds; Drug uptake [24]: Active; Activity [25]: Active; Highest Efficiency Observed Among Tested Compounds
